Assay results as given in patent US20210393810A1, “DIHYDRAZONE COMPOUNDS HAVING HIGH AFFINITY TO A BETA PROTEIN AND TAU PROTEIN, DERIVATIVES THEREOF AND USE THEREOF” (HTA CO., LTD., priority 2019, published 2021).
Values belong to the compound of their own block, whether it stands above or below them.

Experiments:
Aβ1-42 aggregates = target: T1, Aβ1-42 aggregates (Homo sapiens, UniProt P05067); test: Competitive binding experiment with [125I]IMPY; details: competition with [125I]IMPY, Aβ1-42, 37° C., 3 hours
T1 construct: preparing Aβ1-42 proteins according to the known methods
Procedure: (1) formulating a 0.1% BSA solution with pH=7.4;
(2) preparing a radioligand [125I] IMPY according to the known methods; formulating [125I] IMPY into a solution of 60000-100000 cpm/100 μL for later use;
(3) formulating the compound to be tested into a 10^−5 to 10^−11 mol/L serially diluted ethanol solution;
(4) preparing Aβ1-42 proteins according to the known methods, and diluting it into an aqueous solution of about 30 nM;
(5) soaking a glass fiber filter membrane in PBS solution containing 0.1% polyethyleneimine for 30 minutes;
(6) adding 100 μL of the test compound solutions with different concentrations and 100 μL of [125I] IMPY solution, 700 μL of BSA solution and 100 μL of Aβ1-42 solution into a 12 mm×75 mm borosilicate glass tube, and vortexing;
(7) incubating with shaking in a constant temperature water bath at 37° C. for 3 hours;
(8) collecting the reaction solution by a multi-head cell collector, and rinsing the reaction solution for three times with 10% ethanol solution;
(9) measuring and counting with a gamma counter;
(10) analyzing and processing data using GraphPrad Prism 5.01 to obtain an affinity constant Ki.
Activity between some compounds and Aβ1-42 aggregates was quantitatively determined by the method.

[1] = Biodistribution experiment in normal mice; type: in vivo, mice (ICR, male); details: for biodistribution, blood / biodistribution, brain: normal ICR mice; for clearance from the brain / passage through the blood-brain barrier / time at which the brain uptake reaches its peak: normal mice; for time at which the brain uptake reaches its peak: after injection
Procedure: Pharmacokinetic properties in mice, especially the initial brain uptake and brain clearance, were studied through distribution experiments in vivo.
5-10 μCi labelled compounds (100 μL physiological saline solution, containing 10% ethanol) were injected into normal mice (ICR, male, 20-22 g, 5 weeks old) through the tail vein (n=5), and mice were decapitated at 2 minutes, 10 minutes, 30 minutes and 60 minutes after injection, respectively, and organs to be tested were took out by dissection, and the wet weight was measured and radioactive counting was conducted. Data is expressed as the percentage of radioactive dose per gram of organ (% ID/g).

[2] = 2 min after tail vein injection
[3] = 10 min after tail vein injection
[4] = 30 min after tail vein injection
[5] = 60 min after tail vein injection

T1 sequence (P05067 672-713): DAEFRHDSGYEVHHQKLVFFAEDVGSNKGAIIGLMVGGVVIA

SMILES: CNc1ccc(/C=N/N=C/c2ccc(NC)cc2)cc1 [Compound 9]
Ki (Aβ1-42 aggregates): 45.2 ± 18.4 nM

SMILES: CCN(CC)c1ccc(/C=N/N=C/c2ccc(N(CC)CC)cc2)cc1 [Compound 11]
Ki (Aβ1-42 aggregates): 5.1 ± 1.87 nM

SMILES: C(=N\N=C\c1ccc(N2CCCC2)cc1)/c1ccc(N2CCCC2)cc1 [Compound 13]
Ki (Aβ1-42 aggregates): 1.2 ± 0.25 nM

SMILES: C(=N\N=C\c1ccc(N2CCCCC2)cc1)/c1ccc(N2CCCCC2)cc1 [Compound 14]
Ki (Aβ1-42 aggregates): 1.39 ± 0.25 nM

SMILES: C(=N\N=C\c1ccc(N2CCOCC2)cc1)/c1ccc(N2CCOCC2)cc1 [Compound 15]
Ki (Aβ1-42 aggregates): 147 ± 2.06 nM

SMILES: CN(C)c1ncc(/C=N/N=C/c2cnc(N(C)C)nc2)cn1 [Compound 17]
Ki (Aβ1-42 aggregates): 124 ± 21.7 nM

SMILES: CNc1ccc(/C=N/N=C/c2ccc(N(C)C)cc2)cc1 [Compound 36]
Ki (Aβ1-42 aggregates): 35.1 ± 19.3 nM

SMILES: CNc1ccc(/C=N/N=C/c2ccc(O)cc2)cc1 [Compound 63]
Ki (Aβ1-42 aggregates): 277 ± 50.5 nM

SMILES: CNc1ccc(/C=N/N=C/c2ccc(OCCOCCOCCF)nc2)cc1 [Compound 94]
Ki (Aβ1-42 aggregates): 42.9 ± 20.5 nM

SMILES: CNc1ccc(/C=N/N=C/c2ccc(OCCOCCOCC[18F])nc2)cc1 [[18F]94]
biodistribution, blood [1, 2]: 4.30 ± 0.09 % ID/g | biodistribution, blood [1, 3]: 3.40 ± 0.28 % ID/g | biodistribution, blood [1, 4]: 3.66 ± 0.18 % ID/g | biodistribution, blood [1, 5]: 2.59 ± 0.15 % ID/g | biodistribution, brain [1, 2]: 8.59 ± 0.57 % ID/g | biodistribution, brain [1, 3]: 4.09 ± 0.38 % ID/g | biodistribution, brain [1, 4]: 2.40 ± 0.15 % ID/g | biodistribution, brain [1, 5]: 1.36 ± 0.13 % ID/g | clearance from the brain [1]: cleared faster in the brain of normal mice | passage through the blood-brain barrier [1]: can effectively pass through the blood-brain barrier | time at which the brain uptake reaches its peak [1]: 2 min

More lines, main results first:

Ki (Aβ1-42 aggregates): 5.17 ± 1.4 nM
SMILES: CN(C)c1ccc(/C=N/N=C/c2ccc(OCCF)cc2)cc1 [Compound 87]

Ki (Aβ1-42 aggregates): 10.4 ± 6.71 nM
SMILES: CNc1ccc(/C=N/N=C/c2ccc(OCCF)cc2)cc1 [Compound 88]

Ki (Aβ1-42 aggregates): 2.45 ± 1.7 nM
SMILES: CN(C)c1ccc(/C=N/N=C/c2ccc(OCCOCCF)cc2)cc1 [Compound 89]

Ki (Aβ1-42 aggregates): 8.07 ± 2.89 nM
SMILES: CNc1ccc(/C=N/N=C/c2ccc(OCCOCCF)cc2)cc1 [Compound 90]

Ki (Aβ1-42 aggregates): 6.38 ± 0.72 nM
SMILES: CN(C)c1ccc(/C=N/N=C/c2ccc(OCCOCCOCCF)cc2)cc1 [Compound 91]

Ki (Aβ1-42 aggregates): 46.4 ± 15.5 nM
SMILES: CNc1ccc(/C=N/N=C/c2ccc(OCCOCCOCCF)cc2)cc1 [Compound 92]

Ki (Aβ1-42 aggregates): 10.9 ± 0.97 nM
SMILES: CN(C)c1ccc(/C=N/N=C/c2ccc(OCCOCCOCCF)nc2)cc1 [Compound 93]

biodistribution, blood [1, 2]: 3.98 ± 0.24 % ID/g | biodistribution, blood [1, 3]: 3.36 ± 0.19 % ID/g | biodistribution, blood [1, 4]: 3.00 ± 0.13 % ID/g | biodistribution, blood [1, 5]: 2.73 ± 0.42 % ID/g | biodistribution, brain [1, 2]: 10.66 ± 0.89 % ID/g | biodistribution, brain [1, 3]: 11.00 ± 0.80 % ID/g | biodistribution, brain [1, 4]: 6.69 ± 0.42 % ID/g | biodistribution, brain [1, 5]: 4.56 ± 0.58 % ID/g | time at which the brain uptake reaches its peak [1]: 2 min
SMILES: CN(C)c1ccc(/C=N/N=C/c2ccc(OCC[18F])cc2)cc1 [[18F]87]
clearance from the brain [1]: cleared faster in the brain of normal mice | passage through the blood-brain barrier [1]: can effectively pass through the blood-brain barrier

biodistribution, blood [1, 2]: 3.32 ± 0.26 % ID/g | biodistribution, blood [1, 3]: 3.57 ± 0.34 % ID/g | biodistribution, blood [1, 4]: 3.31 ± 0.13 % ID/g | biodistribution, blood [1, 5]: 2.90 ± 0.32 % ID/g | biodistribution, brain [1, 2]: 9.21 ± 0.63 % ID/g | biodistribution, brain [1, 3]: 8.24 ± 0.36 % ID/g | biodistribution, brain [1, 4]: 4.81 ± 0.27 % ID/g | biodistribution, brain [1, 5]: 3.02 ± 0.15 % ID/g | time at which the brain uptake reaches its peak [1]: 2 min
SMILES: CNc1ccc(/C=N/N=C/c2ccc(OCC[18F])cc2)cc1 [[18F]88]
clearance from the brain [1]: cleared faster in the brain of normal mice | passage through the blood-brain barrier [1]: can effectively pass through the blood-brain barrier

biodistribution, blood [1, 2]: 2.95 ± 0.31 % ID/g | biodistribution, blood [1, 3]: 3.24 ± 1.25 % ID/g | biodistribution, blood [1, 4]: 4.78 ± 0.24 % ID/g | biodistribution, blood [1, 5]: 5.42 ± 0.65 % ID/g | biodistribution, brain [1, 2]: 10.88 ± 0.75 % ID/g | biodistribution, brain [1, 3]: 10.62 ± 0.58 % ID/g | biodistribution, brain [1, 4]: 6.06 ± 0.38 % ID/g | biodistribution, brain [1, 5]: 4.55 ± 0.48 % ID/g | time at which the brain uptake reaches its peak [1]: 2 min
SMILES: CN(C)c1ccc(/C=N/N=C/c2ccc(OCCOCC[18F])cc2)cc1 [[18F]89]
clearance from the brain [1]: cleared faster in the brain of normal mice | passage through the blood-brain barrier [1]: can effectively pass through the blood-brain barrier

biodistribution, blood [1, 2]: 3.72 ± 0.44 % ID/g | biodistribution, blood [1, 3]: 3.85 ± 0.26 % ID/g | biodistribution, blood [1, 4]: 4.90 ± 0.61 % ID/g | biodistribution, blood [1, 5]: 5.44 ± 0.40 % ID/g | biodistribution, brain [1, 2]: 11.05 ± 1.70 % ID/g | biodistribution, brain [1, 3]: 7.81 ± 0.60 % ID/g | biodistribution, brain [1, 4]: 4.92 ± 0.41 % ID/g | biodistribution, brain [1, 5]: 3.97 ± 0.28 % ID/g | time at which the brain uptake reaches its peak [1]: 2 min
SMILES: CNc1ccc(/C=N/N=C/c2ccc(OCCOCC[18F])cc2)cc1 [[18F]90]
clearance from the brain [1]: cleared faster in the brain of normal mice | passage through the blood-brain barrier [1]: can effectively pass through the blood-brain barrier

biodistribution, blood [1, 2]: 3.08 ± 0.45 % ID/g | biodistribution, blood [1, 3]: 2.86 ± 0.28 % ID/g | biodistribution, blood [1, 4]: 3.83 ± 0.27 % ID/g | biodistribution, blood [1, 5]: 3.66 ± 0.40 % ID/g | biodistribution, brain [1, 2]: 10.39 ± 1.07 % ID/g | biodistribution, brain [1, 3]: 7.56 ± 0.91 % ID/g | biodistribution, brain [1, 4]: 2.93 ± 0.13 % ID/g | biodistribution, brain [1, 5]: 1.60 ± 0.10 % ID/g | time at which the brain uptake reaches its peak [1]: 2 min
SMILES: CN(C)c1ccc(/C=N/N=C/c2ccc(OCCOCCOCC[18F])cc2)cc1 [[18F]91]
clearance from the brain [1]: cleared faster in the brain of normal mice | passage through the blood-brain barrier [1]: can effectively pass through the blood-brain barrier

biodistribution, blood [1, 2]: 3.81 ± 0.35 % ID/g | biodistribution, blood [1, 3]: 3.06 ± 0.49 % ID/g | biodistribution, blood [1, 4]: 3.26 ± 0.17 % ID/g | biodistribution, blood [1, 5]: 3.05 ± 0.45 % ID/g | biodistribution, brain [1, 2]: 7.84 ± 0.50 % ID/g | biodistribution, brain [1, 3]: 3.94 ± 0.13 % ID/g | biodistribution, brain [1, 4]: 1.88 ± 0.03 % ID/g | biodistribution, brain [1, 5]: 1.17 ± 0.07 % ID/g | time at which the brain uptake reaches its peak [1]: 2 min
SMILES: CNc1ccc(/C=N/N=C/c2ccc(OCCOCCOCC[18F])cc2)cc1 [[18F]92]
clearance from the brain [1]: cleared faster in the brain of normal mice | passage through the blood-brain barrier [1]: can effectively pass through the blood-brain barrier

biodistribution, blood [1, 2]: 3.53 ± 0.24 % ID/g | biodistribution, blood [1, 3]: 3.16 ± 1.00 % ID/g | biodistribution, blood [1, 4]: 3.64 ± 0.29 % ID/g | biodistribution, blood [1, 5]: 2.46 ± 0.33 % ID/g | biodistribution, brain [1, 2]: 11.39 ± 1.08 % ID/g | biodistribution, brain [1, 3]: 5.55 ± 0.37 % ID/g | biodistribution, brain [1, 4]: 2.41 ± 0.22 % ID/g | biodistribution, brain [1, 5]: 1.44 ± 0.15 % ID/g | time at which the brain uptake reaches its peak [1]: 2 min
SMILES: CN(C)c1ccc(/C=N/N=C/c2ccc(OCCOCCOCC[18F])nc2)cc1 [[18F]93]
clearance from the brain [1]: cleared faster in the brain of normal mice | passage through the blood-brain barrier [1]: can effectively pass through the blood-brain barrier
